This is an account of results in patent US11208399B2, “NLRP3 inflammasome inhibitors” (Novartis AG, priority 2019, dated 2021).

Assay [1] deals with NF-kB-dependent TNF-α secretion. Kind of assay: TNF-α secretion assay in THP-1 cells (counter screen, HTRF). The assay is classed as cell-based. The conditions noted are these: Pam3CSK4-stimulated, 3 hours. The gist of the method:
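THP-1 cells were treated with compound, then stimulated with 1 μg/mL LPS or 100 ng/mL Pam3CSK4 for 3 h. Secreted TNF-α in supernatant was measured by HTRF, with viability monitored in parallel. IC50 from logistic fit of % inhibition versus concentration with Hill coefficient.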
In general terms: Counterscreens check selectivity or assay interference.

The test system of another assay is NLRP3 inflammasome. Kind of assay: IL-1β secretion assay in PMA-differentiated THP-1 cells, nigericin-activated (HTRF). The assay is classed as cell-based.
The mark [2] stands for this setting: Homo sapiens, 15 μM nigericin, 3 hours, read-out: IL-1β IC50.

Like-named read-outs stand apart in the source and are kept apart here.

Broadly, the IC50 is the point on the concentration scale where inhibition reaches its midpoint. For `Cc1cc(C)c(-c2ccc(NCCc3ccc(S(N)(=O)=O)cc3)nn2)c(O)c1` [Ex 103, 4-(2-((6-(2-Hydroxy-4,6-dimethylphenyl)pyridazin-3-yl)amino)ethyl)benzenesulfonamide], the IC50 in assay [1] (Homo sapiens) was determined as 16 µM; in the assay on NLRP3 inflammasome (setting [2]), 0.136 µM.
With `Cc1cc(C(F)(F)F)cc(O)c1-c1ccc(NC[C@H]2CCCN2)nn1` [Ex 14, (R)-3-Methyl-2-(6-((pyrrolidin-2-ylmethyl)amino)pyridazin-3-yl)-5-(trifluoromethyl)phenol], the results for the IC50 (in assay [1] (Homo sapiens); in the assay on NLRP3 inflammasome (setting [2])) were above 100 µM and 0.0857 µM, respectively.
In the same order, the values of `Cc1cc(NCC(C)(C)O)nnc1-c1c(C)cc(C(F)(F)F)cc1O` [Ex 73, 2-(6-((2-Hydroxy-2-methylpropyl)amino)-4-methylpyridazin-3-yl)-3-methyl-5-(trifluoromethyl)phenol] are 55 µM and 0.154 µM.
Take `Cc1cc(C(F)(F)F)cc(O)c1-c1ccc(N[C@@H]2CC[C@@H]3CC[C@H]2N3CCO)nn1` [Ex 86b, 2-(6-(((1R,2R,5R)-8-(2-Hydroxyethyl)-8-azabicyclo[3.2.1]octan-2-yl)amino)pyridazin-3-yl)-3-methyl-5-(trifluoromethyl)phenol]: the IC50 is above 100 µM in assay [1] and 0.0018 µM in the assay with NLRP3 inflammasome (read-out: IL-1β IC50, 15 μM nigericin, 3 hours).
